Measured values reported in US4239768A, “Method for relieving irritable bowel syndrome symptoms” (McNeilab, Inc., priority 1978, dated 1980).
Where a name gives a salt, the structure may show the parent alone. Read-outs that look alike come from different tables or passages of the source.

Tested on: sensitivity to distension of th colonic wall
Assay: Glass bead expulsion test (time between rectal insertion and expulsion of bead)
Type: in vivo, male albino mice
Conditions: Mus musculus, 1 h, drug given one hour prior to glass bead insertion, ED50 = dose causing an activity index of 2
Excerpt: The disorder is characterized by abdominal pain, diarrhea, constipation and like symptoms caused by excessive sensitivity to distension of the bowel by the presence of intestinal gas and/or fecal material. The extent to which a compound is effective in providing relief may be determined by a test in which a glass bead is inserted into the rectum and the lapse of time between insertion and expulsion of the bead determined. Compounds which are effective in decreasing the sensitivity to distension of th colonic wall delays the expulsion of the bead. The test is carried out with male albino mice of 18-25 grams body weight using groups of five mice for each compound dose tested. The initial screen dose selected for all compounds is 50 milligrams per kilogram of body weight (mg/kg) administered orally in a volume of 0.1 milliliter per 10 grams of body weight. The control groups receive the vehicle, 0.5 percent methocel, used for both oral and intraperitoneal administration. The mice are fasted one hour before testing and the test drugs are given one hour prior to glass bead insertion. At the end of the pretreatment time, the mouse is picked up and held firmly in one hand with his abdomen facing the technician. The glass bead of 3 millimeters in diameter is positioned at the rectum and using a pinching action with a thumb and forefinger, the bead is pushed into the rectum. Then using a glass rod of 3 millimeters in diameter which has been lubricated with 0.5 percent methocel to facilitate insertion, the glass bead is pushed up into the rectum a distance of 2 centimeters using a slow gentle turning motion. The mice are timed as a group using the last mouse inserted as zero time and the number of beads expelled in a group at different timed intervals are recorded. The groups are based on timed intervals of 0 to 5 minutes, 5 to 10 minutes, 10 to 20 minutes, 20 to 40 minutes and greater than 40 minutes. They are given the activity index values of 0, 1, 2, 3 and 4, respectively. Mice who have not expelled their beads by the 40-minute cutoff time are examined for perforations. Those mice whose colons are perforated are eliminated from the group. The sum of the values divided by the number of mice or beads is termed the activity index for the drug tested. The ED50 is determined by regression lines using the method of least squares. The ED50 is arbitrarily assigned as that dose causing an activity index of 2. The results of this test employing intraperitoneal and oral administration of N-aryl-N'-(2-imidazolidinylidene)urea compounds are shown in Table I.

[1] = ip, intraperitoneal, read-out: ED50 Intraperitoneal

With `Cc1cccc(C)c1NC(=O)N=C1NCCN1` [2,6-di(CH3)-.phi., N-(2,6-dimethylphenyl)-N'-(2-imidazolidinylidene)urea] the ED50 (oral, read-out: ED50 Per Os) was 16 mg/kg and the ED50 [1] was 12 mg/kg.

`Cc1cccc(Cl)c1NC(=O)N=C1NCCN1.Cl` [2-Cl,6-CH3 -.phi., N-(2-chloro-6-methylphenyl)-N'-(2-imidazolidinylidene)urea hydrochloride] showed an ED50 (oral, read-out: ED50 Per Os) of 35 mg/kg and an ED50 [1] of 8 mg/kg.

`Cl.O=C(N=C1NCCN1)Nc1c(Cl)cccc1Cl` [2,6-diCl-.phi., N-(2,6-Dichlorophenyl)-N'-(2-imidazolidinylidene)urea Hydrochloride] gave an ED50 (oral, read-out: ED50 Per Os) of 13.7 mg/kg and an ED50 [1] of 7 mg/kg.

`Cl.O=C(N=C1NCCN1)Nc1c(Br)cccc1Br` [2,6-diBr-.phi., N-(2,6-dibromophenyl)-N'-(2-imidazolidinylidene)urea hydrochloride] showed an ED50 (oral, read-out: ED50 Per Os) of 38 mg/kg and an ED50 [1] of 9 mg/kg.

With `CCc1cccc(C)c1NC(=O)N=C1NCCN1` [2-C2 H5,6-CH3 -.phi., N-(2-Ethyl-6-methylphenyl)-N'-(2-imidazolidinylidene)urea. Fumarate (3:2)] the ED50 (oral, read-out: ED50 Per Os) was 121 mg/kg and the ED50 [1] was 43 mg/kg.
